How the values were obtained:
ECL P99 [1] = assay: Fractional Inhibitory Concentration Index, checkerboard assay; type: cell-based, E. cloacae
Protocol: (§1) Method 2: Determination of the Fractional Inhibitory Concentration Index
(§2) Serial 2-fold dilutions of each antibiotic tested were prepared in ca-MHB and mixed in each well of a 96-well microtiter plate so that each row (and column) contained a fixed amount of one agent and increasing amounts of the second agent. The range of drug concentrations used in the checkerboard analysis was such that the dilution range encompassed the MIC for each drug used in the analysis. Broth microdilution plates were inoculated with each strain (Table 3) to yield 5.10^5 CFU/mL in a 100 μL final volume and incubated for 18 h at 35° C. in ambient air. Assays including Fosfomycin were supplemented with 25 μg/ml of Glucose-6-phosphate. MICs were determined after overnight incubation, and the fractional inhibitory concentration (FIC) index was calculated for each well. The FIC index (FICI) was calculated for each combination according to the equation FICI=FICa+FICb=(MIC of drug A in combination/MIC of drug A alone)+(MIC of drug B in combination/MIC of drug B alone). The FICI was interpreted as follows: synergy, FICI […]; indifference, 0.5<FIC<4; and antagonism, FICI>4. The checkerboard assays were performed in duplicate.

ECO UFR39 = assay: MIC, broth microdilution (CLSI), substance alone or ATB combined with compound at 4 or 8 μg/mL; type: cell-based, E. coli; conditions: Escherichia coli; substance alone; ECO UFR39; read-out: MIC
Summary of the method: (§3)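 Broth microdilution; ca-MHB; 5·10^5 CFU/mL; 35° C, 16-20 h; compound alone or fixed 4/8 μg/mL with antibiotic series; endpoint = no visible growth.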

ECO 190317 [2] = assay: as above; type: cell-based, E. coli; conditions: Escherichia coli; substance alone; ECO 190317; read-out: MIC
Summary of the method: as §3

ECO 190317 [3] = assay: Fractional Inhibitory Concentration Index, checkerboard assay; type: cell-based, E. coli
Protocol: as §1, §2

PAE 105250 = assay: MIC, broth microdilution (CLSI), substance alone or ATB combined with compound at 4 or 8 μg/mL; type: cell-based, P. aeruginosa; conditions: PAE 105250; for MIC ATB combined with compound: compound @8 μg/ml
Summary of the method: as §3

PAE UFR48 [4] = assay: as above; type: cell-based, P. aeruginosa; conditions: PAE UFR48; for MIC ATB combined with compound: compound @8 μg/ml
Summary of the method: as §3

PAE UFR90 [5] = assay: as above; type: cell-based, P. aeruginosa; conditions: PAE UFR90; for MIC ATB combined with compound: compound @8 μg/ml
Summary of the method: as §3

PAE UFR48 [6] = assay: Fractional Inhibitory Concentration Index, checkerboard assay; type: cell-based, P. aeruginosa
Protocol: as §1, §2

PAE UFR90 [7] = assay: as above; type: cell-based, P. aeruginosa
Protocol: as §1, §2

SAU 29213 = assay: MIC, broth microdilution (CLSI), substance alone or ATB combined with compound at 4 or 8 μg/mL; type: cell-based, S. aureus; conditions: for MIC ATB combined with compound: compound @8 μg/ml, SAU 29213
Summary of the method: as §3

ECL P99 [8] = assay: as above; type: cell-based, E. cloacae; conditions: Enterobacter cloacae; substance alone; ECL P99; read-out: MIC
Summary of the method: as §3

SPN 49619 = assay: as above; type: cell-based, S. pneumoniae; conditions: SPN 49619; for MIC ATB combined with compound: compound @8 μg/ml
Summary of the method: as §3

KPN BAA-1898 = assay: as above; type: cell-based, K. pneumoniae; conditions: Klebsiella pneumoniae, BAA1898; substance alone; KPN BAA-1898; read-out: MIC
Protocol: (§4) Compounds of the present invention were assessed against genotyped bacterial strains alone or in combination with an antibacterial. In the assays, MICs of said compounds or combination of antibiotics with fixed concentrations of said compounds (4 or 8 μg/mL) were determined by the broth microdilution method according to the Clinical Laboratory Standards Institute (CLSI-M7-A7). Briefly, compounds alone according to the invention were prepared in DMSO and spotted (2 μL each) on sterile polystyrene plates (Corning, 3788). Combinations of compounds and antibiotics dilutions were prepared in DMSO and spotted (1 μL each) on sterile polystyrene plates (Corning, 3788). Log phase bacterial suspensions were adjusted to a final density of 5·10^5 CFU/mL in cation-adjusted Mueller-Hinton broth (ca-MHB; Becton-Dickinson and Company) and added to each well (98 μL). Assays including Fosfomycin were supplemented with 25 μg/ml of Glucose-6-phosphate. Microplates were incubated for 16-20 h at 35° C. in ambient air. The MIC of the compounds was defined as the lowest concentration of said compounds that prevented bacterial growth as read by visual inspection. The MIC of ATB at each compound concentration was defined as the lowest concentration of ATB that prevented bacterial growth as read by visual inspection.

KPN UFR42 = assay: as above; type: cell-based, K. pneumoniae; conditions: Klebsiella pneumoniae; substance alone; KPN UFR42; read-out: MIC
Protocol: as §4

KPN UFR68 = assay: Fractional Inhibitory Concentration Index, checkerboard assay; type: cell-based, K. pneumoniae
Protocol: as §1, §2

[9] = Pseudomonas aeruginosa, substance alone, read-out: MIC

For `O=C1N2CC(c3cccnc3)=CC(C2)N1OS(=O)(=O)[O-].[Na+]` (stereo not drawn) [Example 8, sodium [3-(3-pyridyl)-7-oxo-1,6-diazabicyclo[3.2.1]oct-3-en-6-yl] sulfate], which FIC index min (ECL P99 [1]; compound +ATM) is on record?
Its FIC index min is 0.53.

And the FIC index min (ECL P99 [1]; compound +FEP)?
Its FIC index min is 0.25.

What about the FIC index min (ECL P99 [1]; compound +FOS) of the same compound?
Its FIC index min is at most 0.28.

And the FIC index min (ECL P99 [1]; compound +MEM)?
Its FIC index min is 0.75.

What about the FIC index min (ECL P99 [1]; compound +PIP) of the same compound?
Its FIC index min is 0.16.

And the MIC (ECO UFR39)?
Its MIC is 4 µg/mL.

What about the MIC (ECO 190317 [2]) of the same compound?
The MIC was 4 µg/mL.

And the FIC index min (ECO 190317 [3]; compound +ATM)?
Its FIC index min is 0.13.

And the FIC index min (ECO 190317 [3]; compound +FEP)?
The FIC index min was 0.13.

What about the FIC index min (ECO 190317 [3]; compound +FOS) of the same compound?
Its FIC index min is 0.63.

And the FIC index min (ECO 190317 [3]; compound +MEM)?
The FIC index min was 0.57.

And the FIC index min (ECO 190317 [3]; compound +PIP)?
Its FIC index min is at most 0.14.

What about the “MIC ATB combined with compound” value (PAE 105250; ATB ATM) of the same compound?
The value was 8 µg/mL.

What about the “MIC ATB combined with compound” value (PAE 105250; ATB FEP) of the same compound?
Its value is 4 µg/mL.

What about the “MIC ATB combined with compound” value (PAE 105250; ATB FOS) of the same compound?
Its value is 128 µg/mL.

And the “MIC ATB combined with compound” value (PAE 105250; ATB MEM)?
The value was 2 µg/mL.

What about the “MIC ATB combined with compound” value (PAE 105250; ATB PIP) of the same compound?
Its value is over 32 µg/mL.

And the MIC (PAE 105250; [9])?
Its MIC is over 32 µg/mL.

And the “MIC ATB combined with compound” value (PAE UFR48 [4]; ATB ATM)?
The value was 16 µg/mL.

And the “MIC ATB combined with compound” value (PAE UFR48 [4]; ATB FEP)?
Its value is 32 µg/mL.

What about the “MIC ATB combined with compound” value (PAE UFR48 [4]; ATB FOS) of the same compound?
Its value is 32 µg/mL.

What about the “MIC ATB combined with compound” value (PAE UFR48 [4]; ATB MEM) of the same compound?
Its value is 4 µg/mL.

What about the “MIC ATB combined with compound” value (PAE UFR48 [4]; ATB PIP) of the same compound?
The value was over 32 µg/mL.

And the MIC (PAE UFR48 [4]; [9])?
Its MIC is over 128 µg/mL.

And the “MIC ATB combined with compound” value (PAE UFR90 [5]; ATB ATM)?
Its value is 16 µg/mL.

What about the “MIC ATB combined with compound” value (PAE UFR90 [5]; ATB FEP) of the same compound?
The value was 4 µg/mL.

And the “MIC ATB combined with compound” value (PAE UFR90 [5]; ATB FOS)?
The value was 8 µg/mL.

And the “MIC ATB combined with compound” value (PAE UFR90 [5]; ATB MEM)?
Its value is 2 µg/mL.

And the “MIC ATB combined with compound” value (PAE UFR90 [5]; ATB PIP)?
The value was over 32 µg/mL.

What about the MIC (PAE UFR90 [5]; [9]) of the same compound?
The MIC was over 128 µg/mL.

And the FIC index min (PAE UFR48 [6]; compound +ATM)?
Its FIC index min is at most 0.13.

And the FIC index min (PAE UFR48 [6]; compound +FEP)?
Its FIC index min is at most 0.5.

And the FIC index min (PAE UFR48 [6]; compound +FOS)?
Its FIC index min is at most 0.25.

And the FIC index min (PAE UFR48 [6]; compound +MEM)?
Its FIC index min is 1.0.

What about the FIC index min (PAE UFR48 [6]; compound +PIP) of the same compound?
Its FIC index min is at most 0.31.

What about the FIC index min (PAE UFR90 [7]; compound +ATM) of the same compound?
The FIC index min was at most 0.75.

And the FIC index min (PAE UFR90 [7]; compound +FEP)?
Its FIC index min is at most 0.25.

And the FIC index min (PAE UFR90 [7]; compound +FOS)?
Its FIC index min is at most 0.62.

And the FIC index min (PAE UFR90 [7]; compound +MEM)?
Its FIC index min is at most 0.56.

What about the FIC index min (PAE UFR90 [7]; compound +PIP) of the same compound?
The FIC index min was at most 0.25.

And the “MIC ATB combined with compound” value (SAU 29213; ATB ATM)?
Its value is under 0.031 µg/mL.

What about the “MIC ATB combined with compound” value (SAU 29213; ATB FEP) of the same compound?
The value was “<=0.031 μg/mL”.

And the “MIC ATB combined with compound” value (SAU 29213; ATB FOS)?
The value was 0.25 µg/mL.

What about the “MIC ATB combined with compound” value (SAU 29213; ATB MEM) of the same compound?
Its value is under 0.031 µg/mL.

And the “MIC ATB combined with compound” value (SAU 29213; ATB PIP)?
The value was under 0.031 µg/mL.

And the MIC (SAU 29213; Staphylococcus aureus, substance alone, SAU 29213 (MSSA 29213), read-out: MIC)?
Its MIC is 8 µg/mL.

And the MIC (ECL P99 [8])?
Its MIC is 8 µg/mL.

And the “MIC ATB combined with compound” value (SPN 49619; ATB ATM)?
The value was “<=0.031 μg/mL”.

And the “MIC ATB combined with compound” value (SPN 49619; ATB FEP)?
The value was under 0.031 µg/mL.

And the “MIC ATB combined with compound” value (SPN 49619; ATB FOS)?
The value was under 0.125 µg/mL.

And the “MIC ATB combined with compound” value (SPN 49619; ATB MEM)?
Its value is under 0.031 µg/mL.

And the “MIC ATB combined with compound” value (SPN 49619; ATB PIP)?
Its value is under 0.031 µg/mL.

What about the MIC (SPN 49619; Streptococcus pneumoniae, substance alone, read-out: MIC) of the same compound?
Its MIC is 4 µg/mL.

And the MIC (KPN BAA-1898)?
The MIC was 8 µg/mL.

What about the MIC (KPN UFR42) of the same compound?
Its MIC is 16 µg/mL.

What about the FIC index min (KPN UFR68; compound +ATM) of the same compound?
The FIC index min was at most 0.07.

And the FIC index min (KPN UFR68; compound +FEP)?
Its FIC index min is at most 0.08.

And the FIC index min (KPN UFR68; compound +FOS)?
Its FIC index min is 0.75.

What about the FIC index min (KPN UFR68; compound +MEM) of the same compound?
Its FIC index min is at most 0.07.

What about the FIC index min (KPN UFR68; compound +PIP) of the same compound?
Its FIC index min is at most 0.07.
